Source: patent US20210115047A1, “CDPK1 INHIBITORS, COMPOSITIONS AND METHODS RELATED THERETO” (Vyera Pharmaceutical, LLC, priority 2017, published 2021)

Target: T1, T. gondii CDPK1 (tgCDPK1) (Toxoplasma gondii, UniProt Q9BJF5)
T1 sequence (Q9BJF5 1-507): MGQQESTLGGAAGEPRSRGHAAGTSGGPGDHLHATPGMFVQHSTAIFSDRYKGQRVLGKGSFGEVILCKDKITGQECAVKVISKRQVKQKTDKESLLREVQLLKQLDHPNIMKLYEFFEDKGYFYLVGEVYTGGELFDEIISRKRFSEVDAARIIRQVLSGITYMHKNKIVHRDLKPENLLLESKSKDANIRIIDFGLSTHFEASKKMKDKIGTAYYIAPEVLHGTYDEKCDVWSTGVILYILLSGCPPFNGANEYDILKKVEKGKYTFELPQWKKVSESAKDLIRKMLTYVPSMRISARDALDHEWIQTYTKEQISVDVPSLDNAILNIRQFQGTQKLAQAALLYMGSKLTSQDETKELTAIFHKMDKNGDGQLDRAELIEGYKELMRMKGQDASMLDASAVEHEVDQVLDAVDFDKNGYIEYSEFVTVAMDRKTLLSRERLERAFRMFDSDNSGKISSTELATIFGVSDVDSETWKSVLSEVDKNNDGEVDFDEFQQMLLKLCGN
Experiment: Inhibition of T. gondii CDPK1 (tgCDPK1), IC50 determination
Type: biochemical
Conditions: at least three independent replicates per compound
Description: Certain of the compounds prepared as described above were assayed to determine their IC50 for inhibition of T. gondii CDPK1 (tgCDPK1). At least three independent replicates of the assay were conducted for each compound tested.

Row | Structure (SMILES) | IC50 [nM]
1 | Nc1ncnc2c1c(Cc1cc(F)cc(Cl)c1)nn2C1CC1 [Compound 4, 3-(3-chloro-5-fluorobenzyl)-1-cyclopropyl-1H-pyrazolo[3,4-d]pyrimidin-4-amine] | 91.7
2 | Nc1ncnc2c1c(Cc1cccc(F)c1)nn2C1CC1 [Compound 5, 1-cyclopropyl-3-(3-fluorobenzyl)-1H-pyrazolo[3,4-d]pyrimidin-4-amine] | 25.3
3 | Nc1ncnc2c1c(Cc1cccc(Cl)c1)nn2C1CCC1 [Compound 6, 3-(3-chlorobenzyl)-1-cyclobutyl-1H-pyrazolo[3,4-d]pyrimidin-4-amine] | 8.7
4 | Nc1ncnc2c1c(Cc1cccc(-c3ccccc3)c1)nn2C1CC1 [Compound 9, 3-([1,1′-biphenyl]-3-ylmethyl)-1-cyclopropyl-1H-pyrazolo[3,4-d]pyrimidin-4-amine] | 26.3
5 | Nc1ncnc2c1c(Cc1cccc(-c3cncnc3)c1)nn2C1CC1 [Compound 10, 1-cyclopropyl-3-(3-(pyrimidin-5-yl)benzyl)-1H-pyrazolo[3,4-d]pyrimidin-4-amine] | 373
6 | Nc1ncnc2c1c(Cc1cccc(-c3ccncc3)c1)nn2C1CC1 [Compound 11, 1-cyclopropyl-3-(3-(pyridin-4-yl)benzyl)-1H-pyrazolo[3,4-d]pyrimidin-4-amine] | 1170
7 | Nc1ncnc2c1c(C(O)c1ccccc1)nn2C1CC1 (stereo not drawn) [Compound 16, (4-amino-1-cyclopropyl-1H-pyrazolo[3,4-d]pyrimidin-3-yl)(phenyl)methanol] | 1750
8 | Nc1ncnc2c1c(Cc1ccccc1)nn2C1CC1 [Compound 17, 3-benzyl-1-cyclopropyl-1H-pyrazolo[3,4-d]pyrimidin-4-amine] | 25.4
9 | Nc1ncnc2c1c(C(O)c1cccnc1)nn2C1CC1 (stereo not drawn) [Compound 18, (4-amino-1-cyclopropyl-1H-pyrazolo[3,4-d]pyrimidin-3-yl)(pyridin-3-yl)methanol] | 4870
